Test results reported in patent US11834663B2, “Fibrotic treatment” (Monash University, priority 2015, dated 2023).

System: aged WT mice
Assay: Systolic blood pressure, body weight and cardiac hypertrophy in aged WT mice after chronic IRAP inhibition
Assay type: in vivo, mouse
Method: There are 8 different sets of in vivo experiments in this study: • A) Phenotypic characterisation of the heart and blood vessels in global IRAP knockout mice and their WT controls treated for 4 weeks with Angiotensin (Ang) II (800 ng/kg/min; s.c.) where mouse hearts and blood vessels were compared to tissue obtained from young WT and IRAP^−/− mice treated with saline. • B) Prevention of Ang II-induced changes in the cardiovascular system following IRAP inhibitor treatment. In the prevention model, WT mice were treated with Ang II (800 ng/kg/min; s.c.)±the IRAP inhibitor (HFI-419; 500 ng/kg/min for 28 days) or HFI-vehicle (1 DMSO:3 HBC). • C) Phenotypic characterisation of the aged heart, kidney and blood vessels in the global IRAP knockout mice where aged WT and IRAP^−/− mouse hearts, kidneys and blood vessels were compared to tissue obtained from young WT and IRAP^−/− mice. • D) Reversal of the age-induced changes in the cardiovascular system following IRAP inhibitor treatment. In the reversal model, aged WT mice were treated with either saline, IRAP inhibitor (HFI-419 at 500 ng/kg/min; compound 1 at 500 ng/kg/min; compound 2 at 50 ng/kg/min) or HFI-vehicle (1 DMSO: 3 HBC) for 4 weeks. • E) Prevention of ischemic-reperfusion injury in isolated hearts taken from aged global IRAP knockout mice and aged IRAP inhibitor (HFI-419 at 500 ng/kg/min; s.c.) treated WT mice compared to age-matched vehicle-treated (1 DMSO:3 HBC; s.c.) WT controls. • F) Phenotypic characterization of cardiac function using echocardiography in the aged global IRAP knockout mice compared to aged and young WT mice. • G) Phenotypic characterization of liver steatosis in IRAP knockout mice in a high fat diet (HFD) model. • H) Reversal of the salt-induced fibrosis in the liver following IRAP inhibitor treatment.
All mice which underwent surgery were anaesthetized with Isoflurane (Isorrane) (5% induction and 2.5% maintenance) and an incision made in the midscapular region through which osmotic minipumps (Alzet model 2004, Alza Corp) were inserted for subcutaneous drug administration. The incision area was sutured with 6/0 DY silk (Dynek Pty Ltd) and antibiotic powder applied (Cicatrin, Pfizer) followed by intramuscular injection of the analgesic Cartrophen (0.1 ml of a 1.5 mg/ml stock solution; Biopharm Australia). Systolic blood pressure (SBP) was measured fortnightly using non-invasive tail-cuff plethysmography apparatus (MC4000 Blood Pressure Analysis System, Hatteras Instrument Inc) before drug treatment (week 0), at week 2 of treatment and end of treatment (week 4). At the end of drug treatment, body weight of mice was recorded. Mice were anaesthetized using Isoflurane inhalation and killed by cervical dislocation. Organs (heart, aorta, kidneys, brain, blood and tibia) were collected, with heart and aorta being dissected appropriately as described below. All organs were then snap frozen in liquid nitrogen, and stored at −80° C. if they were not used for vascular reactivity studies conducted on the day mice were killed.
Ventricular weight (VW) was compared to the body weight (BW) as a ratio of VW:BW (mg/g), as well as comparison of VW to tibial length (TL) in as a ratio of VW:TL (mg/mm) respectively. […] The average of 100 cardiomyocytes per heart section was performed under 60× magnification and analyzed using Image J.

## CCOC(=O)C1=C(NC(C)=O)Oc2cc(O)ccc2C1c1cccnc1 (centres unmarked) [HFI-419]
Chronic (4 week) HFI-419, FIG. 16a
  systolic blood pressure, SBP: no significant effect
Chronic (4 week) HFI-419, FIG. 16b
  body weight: no significant effect
Chronic (4 week) HFI-419, FIG. 16c
  ventricular weight to body weight ratio, VW:BW: no significant effect
Chronic (4 week) HFI-419, FIG. 16e
  cardiomyocyte cross-sectional area (H&E): no effect
Chronic (4 week) HFI-419, FIG. 16d
  ventricular weight to tibial length ratio, VW:TL: no significant effect
